From ChEMBL document CHEMBL6074671, “Discovery of Pyridine-2-Carboxamides Derivatives as Potent and Selective HPK1 Inhibitors for the Treatment of Cancer” (J Med Chem, 2024)
≈ marks a conversion by molar mass, not a printed value.

Experiments:
[1] = molecular target: T1, Mitogen-activated protein kinase kinase kinase kinase 3 (Homo sapiens, UniProt Q8IVH8); assay: Inhibition of GLK (unknown origin)
T1 sequence (Q8IVH8 whole entry): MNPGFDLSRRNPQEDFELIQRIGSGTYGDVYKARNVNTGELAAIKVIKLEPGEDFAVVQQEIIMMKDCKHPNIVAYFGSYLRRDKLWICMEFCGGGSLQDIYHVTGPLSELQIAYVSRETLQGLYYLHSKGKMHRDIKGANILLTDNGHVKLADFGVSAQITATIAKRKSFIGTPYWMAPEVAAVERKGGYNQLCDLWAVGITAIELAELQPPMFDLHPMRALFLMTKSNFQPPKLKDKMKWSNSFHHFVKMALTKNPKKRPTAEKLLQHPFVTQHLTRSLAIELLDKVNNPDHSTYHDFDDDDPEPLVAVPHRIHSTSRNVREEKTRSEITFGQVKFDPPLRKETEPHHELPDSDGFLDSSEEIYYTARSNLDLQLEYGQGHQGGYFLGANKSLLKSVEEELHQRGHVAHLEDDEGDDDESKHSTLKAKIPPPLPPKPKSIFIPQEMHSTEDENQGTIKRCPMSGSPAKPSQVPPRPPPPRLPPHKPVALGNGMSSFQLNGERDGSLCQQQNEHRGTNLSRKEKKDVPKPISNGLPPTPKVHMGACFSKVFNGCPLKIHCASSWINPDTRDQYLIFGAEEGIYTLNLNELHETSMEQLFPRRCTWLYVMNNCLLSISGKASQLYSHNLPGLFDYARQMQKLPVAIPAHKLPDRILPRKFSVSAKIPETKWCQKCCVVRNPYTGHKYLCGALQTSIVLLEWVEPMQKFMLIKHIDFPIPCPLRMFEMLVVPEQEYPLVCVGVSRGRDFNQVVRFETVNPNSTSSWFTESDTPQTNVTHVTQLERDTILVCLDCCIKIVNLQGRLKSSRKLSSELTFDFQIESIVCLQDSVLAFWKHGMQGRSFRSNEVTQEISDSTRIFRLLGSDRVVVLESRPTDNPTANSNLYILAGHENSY

[2] = molecular target: Mitogen-activated protein kinase kinase kinase kinase 5 (Homo sapiens, UniProt Q9Y4K4); assay: Inhibition of human GST-tagged full length recombinant MAP4K5 expressed in insect cells; set-up: species or system Insect cell
Mitogen-activated protein kinase kinase kinase kinase 5, sequence (Q9Y4K4 whole entry): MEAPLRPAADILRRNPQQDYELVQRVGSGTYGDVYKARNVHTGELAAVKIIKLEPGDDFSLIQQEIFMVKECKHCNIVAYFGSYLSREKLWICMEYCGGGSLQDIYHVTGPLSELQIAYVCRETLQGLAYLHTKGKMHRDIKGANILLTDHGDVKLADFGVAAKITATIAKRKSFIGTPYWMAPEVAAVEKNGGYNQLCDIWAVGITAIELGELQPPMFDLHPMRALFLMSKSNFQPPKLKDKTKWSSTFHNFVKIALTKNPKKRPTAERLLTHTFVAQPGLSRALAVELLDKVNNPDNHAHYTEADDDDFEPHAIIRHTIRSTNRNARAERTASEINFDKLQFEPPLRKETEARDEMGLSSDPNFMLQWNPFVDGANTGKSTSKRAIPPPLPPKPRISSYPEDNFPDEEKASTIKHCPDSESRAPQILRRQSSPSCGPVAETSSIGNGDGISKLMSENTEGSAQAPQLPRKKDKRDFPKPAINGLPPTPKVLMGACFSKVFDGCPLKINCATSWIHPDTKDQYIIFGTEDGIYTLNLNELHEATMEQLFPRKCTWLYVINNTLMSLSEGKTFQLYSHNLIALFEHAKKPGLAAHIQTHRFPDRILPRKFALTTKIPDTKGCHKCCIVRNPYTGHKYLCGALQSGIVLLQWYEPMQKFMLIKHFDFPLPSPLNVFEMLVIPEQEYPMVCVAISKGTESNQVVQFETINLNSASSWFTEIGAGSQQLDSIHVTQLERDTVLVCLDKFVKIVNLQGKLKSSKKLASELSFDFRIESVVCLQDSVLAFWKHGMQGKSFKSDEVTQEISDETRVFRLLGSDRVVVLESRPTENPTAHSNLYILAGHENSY

[3] = molecular target: Tyrosine-protein kinase Lck (Homo sapiens, UniProt P06239); assay: Inhibition of LCK (unknown origin)
[4] = molecular target: Tyrosine-protein kinase SYK (Homo sapiens, UniProt P43405); assay: Inhibition of SYK (unknown origin)
[5] = molecular target: Serine/threonine-protein kinase 3 (Homo sapiens, UniProt Q13188); assay: Inhibition of MST2 (unknown origin)
Serine/threonine-protein kinase 3, sequence (Q13188 whole entry): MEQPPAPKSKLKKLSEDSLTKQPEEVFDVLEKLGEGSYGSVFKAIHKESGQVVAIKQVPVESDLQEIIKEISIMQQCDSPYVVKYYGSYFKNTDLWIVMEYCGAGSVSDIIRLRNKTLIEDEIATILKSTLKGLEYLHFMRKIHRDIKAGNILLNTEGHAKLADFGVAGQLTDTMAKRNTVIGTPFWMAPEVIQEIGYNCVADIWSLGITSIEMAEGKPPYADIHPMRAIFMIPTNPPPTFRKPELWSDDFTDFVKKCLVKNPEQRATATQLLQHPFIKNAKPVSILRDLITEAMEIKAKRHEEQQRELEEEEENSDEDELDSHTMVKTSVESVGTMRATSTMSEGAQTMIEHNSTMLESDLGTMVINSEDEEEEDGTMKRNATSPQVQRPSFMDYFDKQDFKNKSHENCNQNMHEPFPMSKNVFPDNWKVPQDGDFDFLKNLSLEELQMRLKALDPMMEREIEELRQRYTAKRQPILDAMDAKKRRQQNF

[6] = molecular target: Cyclin-dependent kinase 2 (Homo sapiens, UniProt P24941); assay: Inhibition of CDK2 (unknown origin)
[7] = molecular target: Tyrosine-protein kinase JAK2 (Homo sapiens, UniProt O60674); assay: Inhibition of JAK2 (unknown origin)
Tyrosine-protein kinase JAK2, sequence (O60674 whole entry): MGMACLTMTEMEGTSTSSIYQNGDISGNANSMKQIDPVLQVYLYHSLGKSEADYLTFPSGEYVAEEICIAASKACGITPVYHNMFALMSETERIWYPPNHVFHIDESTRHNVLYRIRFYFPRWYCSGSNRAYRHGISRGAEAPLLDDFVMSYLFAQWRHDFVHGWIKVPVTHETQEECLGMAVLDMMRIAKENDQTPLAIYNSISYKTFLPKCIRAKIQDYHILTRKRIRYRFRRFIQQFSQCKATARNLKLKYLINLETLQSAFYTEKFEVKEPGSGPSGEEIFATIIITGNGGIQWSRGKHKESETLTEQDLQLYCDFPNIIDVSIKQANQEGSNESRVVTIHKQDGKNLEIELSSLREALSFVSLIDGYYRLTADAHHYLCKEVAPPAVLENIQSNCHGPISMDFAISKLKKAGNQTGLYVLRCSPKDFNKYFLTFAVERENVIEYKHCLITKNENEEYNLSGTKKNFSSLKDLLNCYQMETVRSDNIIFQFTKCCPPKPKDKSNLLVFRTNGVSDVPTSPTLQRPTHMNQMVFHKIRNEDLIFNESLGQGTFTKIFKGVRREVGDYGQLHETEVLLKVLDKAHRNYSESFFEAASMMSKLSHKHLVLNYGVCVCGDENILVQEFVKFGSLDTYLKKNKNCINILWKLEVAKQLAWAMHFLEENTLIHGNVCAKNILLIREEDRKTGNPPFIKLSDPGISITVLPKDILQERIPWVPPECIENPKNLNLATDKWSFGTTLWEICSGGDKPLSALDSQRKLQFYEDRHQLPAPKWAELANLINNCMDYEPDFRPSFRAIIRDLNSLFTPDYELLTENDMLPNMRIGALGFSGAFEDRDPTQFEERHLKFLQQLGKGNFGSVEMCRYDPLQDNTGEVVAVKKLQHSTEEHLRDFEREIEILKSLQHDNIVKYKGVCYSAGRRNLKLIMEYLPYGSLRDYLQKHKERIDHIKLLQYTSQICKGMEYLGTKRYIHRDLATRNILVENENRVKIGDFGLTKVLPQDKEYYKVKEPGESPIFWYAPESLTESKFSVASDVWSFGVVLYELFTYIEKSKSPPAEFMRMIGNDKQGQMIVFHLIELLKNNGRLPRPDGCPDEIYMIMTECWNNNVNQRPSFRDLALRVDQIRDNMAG

[8] = molecular target: Serine/threonine-protein kinase PAK 3 (Homo sapiens, UniProt O75914); assay: Inhibition of PAK3 (unknown origin)
[9] = molecular target: Serine/threonine-protein kinase TAO2 (Homo sapiens, UniProt Q9UL54); assay: Inhibition of TAOK2 (unknown origin)
Serine/threonine-protein kinase TAO2, sequence (Q9UL54 whole entry): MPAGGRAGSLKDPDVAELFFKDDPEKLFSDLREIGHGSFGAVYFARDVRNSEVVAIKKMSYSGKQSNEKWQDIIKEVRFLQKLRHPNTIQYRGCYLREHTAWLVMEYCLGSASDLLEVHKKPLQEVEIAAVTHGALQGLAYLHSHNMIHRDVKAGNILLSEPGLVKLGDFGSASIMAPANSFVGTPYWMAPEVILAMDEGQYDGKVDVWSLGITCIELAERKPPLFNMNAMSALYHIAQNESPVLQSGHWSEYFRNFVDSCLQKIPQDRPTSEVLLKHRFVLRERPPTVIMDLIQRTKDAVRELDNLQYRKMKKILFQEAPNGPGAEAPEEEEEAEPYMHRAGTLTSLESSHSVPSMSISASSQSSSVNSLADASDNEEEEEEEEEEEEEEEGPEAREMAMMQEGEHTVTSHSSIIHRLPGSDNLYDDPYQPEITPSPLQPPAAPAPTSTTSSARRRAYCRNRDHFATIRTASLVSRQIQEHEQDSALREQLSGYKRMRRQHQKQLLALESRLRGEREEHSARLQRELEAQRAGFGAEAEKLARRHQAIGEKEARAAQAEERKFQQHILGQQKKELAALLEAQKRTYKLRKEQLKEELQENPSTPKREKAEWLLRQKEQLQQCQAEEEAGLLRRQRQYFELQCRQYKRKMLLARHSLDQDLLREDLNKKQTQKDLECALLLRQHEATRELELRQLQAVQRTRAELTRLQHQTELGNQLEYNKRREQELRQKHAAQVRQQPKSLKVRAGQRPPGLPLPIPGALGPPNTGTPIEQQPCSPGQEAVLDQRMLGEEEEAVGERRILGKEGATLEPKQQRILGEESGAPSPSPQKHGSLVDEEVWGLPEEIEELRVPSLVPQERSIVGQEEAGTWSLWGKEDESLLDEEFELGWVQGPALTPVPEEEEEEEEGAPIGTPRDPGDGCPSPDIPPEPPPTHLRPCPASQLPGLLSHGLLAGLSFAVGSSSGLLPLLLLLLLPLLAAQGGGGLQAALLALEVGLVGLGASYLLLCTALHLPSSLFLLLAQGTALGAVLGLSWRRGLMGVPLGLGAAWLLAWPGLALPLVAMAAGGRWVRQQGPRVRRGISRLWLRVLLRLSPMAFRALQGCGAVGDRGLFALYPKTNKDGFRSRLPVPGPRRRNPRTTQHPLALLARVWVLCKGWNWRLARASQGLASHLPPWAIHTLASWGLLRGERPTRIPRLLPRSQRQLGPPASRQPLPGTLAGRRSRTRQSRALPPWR

[10] = Inhibition of ABL (unknown origin); set-up: species or system Homo sapiens
[11] = Toxicity in Balb/c mouse assessed as effect on body weight loss at 1.5 to 12 mg/kg, po BID measured after 15 days; type: organism-based; conditions: in vivo, 360 h, dose 1.5-12 mg/kg, time 15 day
MC-38 [12] = assay: Antitumor activity against mouse MC38 cells implanted in C57BL/6 mouse model assessed as tumor growth inhibition at 3 mg/kg, po BID measured after 12 days relative to control; type: functional; conditions: MC-38, 288 h, time 12 day, read-out: TGI
MC-38 [13] = assay: Synergistic antitumor activity against mouse MC38 cells implanted in C57BL/6 mouse model assessed as CDI value at high dose, po BID measured after 12 days in presence of anti-PD-1; type: functional; conditions: time 12 day
MC-38 [14] = assay: Synergistic antitumor activity against mouse MC38 cells implanted in C57BL/6 mouse model assessed as tumor growth inhibition at high dose, po BID measured after 12 days in presence of anti-PD-1 relative to control; type: functional; conditions: time 12 day
[15] = Toxicity in C57BL/6 mouse implanted with mouse MC38 cells assessed as effect on body weight loss at high dose, po BID measured after 12 days in presence of anti-PD-1; type: organism-based; conditions: in vivo, 288 h, time 12 day
[16] = Toxicity in C57BL/6 mouse implanted with mouse MC38 cells assessed as increase in survival at low dose, po BID measured after 12 days; type: organism-based; conditions: in vivo, 288 h, time 12 day
[17] = Solubility in compound in FassIF at pH 6.5 incubated for 24 hrs by HPLC-UV analysis; type: physicochemical
[18] = Solubility in compound in FessIF at pH 5.0 incubated for 24 hrs by HPLC-UV analysis; type: physicochemical
[19] = Efflux ratio in human Caco-2 cells; type: ADME, cell-based
[20] = Plasma protein binding in rat assessed as unbound fraction at 2 uM incubated for 4 hrs by LC-MS/MS analysis; type: ADME, cell-free
[21] = Plasma protein binding in dog assessed as unbound fraction at 2 uM incubated for 4 hrs by LC-MS/MS analysis; type: ADME, cell-free, Canis lupus familiaris
Cytochrome P450 1A2 = Cytochrome P450 1A2 (Homo sapiens, UniProt P05177); assay: Inhibition of CYP1A2 in human liver microsomes using phenacetin O-demethylation as substrate incubated for 10 mins in presence of NADPH by LC-MS/MS analysis; type: ADME, Microsome
Cytochrome P450 1A2, sequence (P05177 whole entry): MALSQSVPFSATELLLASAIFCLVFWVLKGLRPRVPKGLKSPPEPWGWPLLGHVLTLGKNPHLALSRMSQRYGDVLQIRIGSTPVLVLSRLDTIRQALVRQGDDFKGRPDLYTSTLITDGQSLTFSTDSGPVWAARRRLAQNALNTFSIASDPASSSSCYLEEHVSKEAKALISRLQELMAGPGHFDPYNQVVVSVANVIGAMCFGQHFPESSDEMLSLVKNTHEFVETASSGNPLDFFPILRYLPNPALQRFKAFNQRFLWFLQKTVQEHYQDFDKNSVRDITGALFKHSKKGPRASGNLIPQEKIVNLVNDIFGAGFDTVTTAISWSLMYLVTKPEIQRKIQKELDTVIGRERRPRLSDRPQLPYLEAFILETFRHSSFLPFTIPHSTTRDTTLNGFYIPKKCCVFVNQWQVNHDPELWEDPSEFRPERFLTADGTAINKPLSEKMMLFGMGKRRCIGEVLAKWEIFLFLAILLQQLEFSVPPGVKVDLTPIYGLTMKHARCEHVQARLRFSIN

Cytochrome P450 2C19 = Cytochrome P450 2C19 (Homo sapiens, UniProt P33261); assay: Inhibition of CYP2C19 in human liver microsomes using S-mephenytoin 4-hydroxylation as substrate incubated for 10 mins in presence of NADPH by LC-MS/MS analysis; type: ADME, Microsome
Cytochrome P450 2D6 = Cytochrome P450 2D6 (Homo sapiens, UniProt P10635); assay: Inhibition of CYP2D6 in human liver microsomes using O-demethylation as substrate incubated for 10 mins in presence of NADPH by LC-MS/MS analysis; type: ADME, Microsome
Cytochrome P450 2D6, sequence (P10635 whole entry): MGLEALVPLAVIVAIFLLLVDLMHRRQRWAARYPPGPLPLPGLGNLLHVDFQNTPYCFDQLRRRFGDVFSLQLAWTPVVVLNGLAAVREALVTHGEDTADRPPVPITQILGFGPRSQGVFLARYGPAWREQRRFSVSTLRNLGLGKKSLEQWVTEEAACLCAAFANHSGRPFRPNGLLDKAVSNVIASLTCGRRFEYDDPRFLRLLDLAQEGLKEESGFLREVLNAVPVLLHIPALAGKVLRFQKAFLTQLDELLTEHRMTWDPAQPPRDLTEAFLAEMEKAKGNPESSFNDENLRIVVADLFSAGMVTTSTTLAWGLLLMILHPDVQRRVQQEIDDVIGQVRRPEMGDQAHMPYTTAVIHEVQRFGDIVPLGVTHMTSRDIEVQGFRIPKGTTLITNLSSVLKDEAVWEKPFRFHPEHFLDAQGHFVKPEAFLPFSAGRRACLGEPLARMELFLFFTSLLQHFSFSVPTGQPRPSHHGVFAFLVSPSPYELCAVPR

[22] = Genotoxicity in Salmonella typhimurium TA1535 incubated for 48 to 72 hrs in presence of S9 fraction by AMES test; type: toxicity, subcellular; conditions: salmonella enterica subsp. enterica serovar typhimurium, time 48-72 hrs
[23] = Genotoxicity in Salmonella typhimurium TA1537 incubated for 48 to 72 hrs in presence of S9 fraction by AMES test; type: toxicity, subcellular; conditions: salmonella enterica subsp. enterica serovar typhimurium, time 48-72 hrs
[24] = Effect on IL-2 secretion in human T cells by ELISA method; type: functional, cell-based; conditions: T-cell
in vivo [25] = conditions: Sprague-Dawley, rat, plasma, iv, 1 mg/kg
Description: Clearance in Sprague-Dawley rat plasma at 1 mg/kg, iv

in vivo [26] = conditions: Beagle, dog, iv, 1 mg/kg
Description: Volume of distribution in Beagle dog at 1 mg/kg, iv

in vivo [27] = conditions: Beagle, dog, po, 2 mg/kg
Description: Half life in Beagle dog at 2 mg/kg, po

in vivo [28] = conditions: Beagle, dog, po, 2 mg/kg; remark: listed apart in the source
in vivo [29] = conditions: cynomolgus monkey, po, 2 mg/kg
Description: Half life in Cynomolgus monkey at 2 mg/kg, po

in vivo [30] = conditions: cynomolgus monkey, po, 2 mg/kg; remark: listed apart in the source

Question: With `COc1cc(Nc2ccc3c(n2)CN(C)C32CCN(C3COC3)CC2)c(C(N)=O)nc1-c1cccc2c1ncn2C` as the compound, how does the IC50 [1] read?
Answer: 0.325 µM

Question: What about the IC50 [2] of the same compound?
Answer: 0.185 µM

Question: And the IC50 [3]?
Answer: 0.521 µM

Question: And the IC50 [4]?
Answer: > 10 µM

Question: What about the IC50 [5] of the same compound?
Answer: > 10 µM

Question: And the IC50 [6]?
Answer: > 10 µM

Question: And the IC50 [7]?
Answer: > 10 µM

Question: What about the IC50 [8] of the same compound?
Answer: > 10 µM

Question: What about the IC50 [9] of the same compound?
Answer: > 10 µM

Question: And the IC50 [10]?
Answer: 4.42 µM

Question: What about the Activity [11] of the same compound?
Answer: Non-toxic

Question: What about the inhibition in vivo at 3 mg/kg (MC-38 [12]) of the same compound?
Answer: 34.9%

Question: What about the Activity (MC-38 [13]) of the same compound?
Answer: 0.57

Question: What about the TGI (MC-38 [14]) of the same compound?
Answer: 83.3%

Question: What about the Activity [15] of the same compound?
Answer: Non-toxic

Question: And the Activity [16]?
Answer: Non-toxic

Question: And the solubility at 24 h [17]?
Answer: 18.9 µM (≈ 10.5 µg/mL)

Question: And the solubility at 24 h [18]?
Answer: 134 µM (≈ 74.3 µg/mL)

Question: What about the efflux ratio [19] of the same compound?
Answer: 8.4

Question: What about the fraction unbound at 4 h, 2 µM [20] of the same compound?
Answer: 0.058

Question: What about the fraction unbound at 4 h, 2 µM [21] of the same compound?
Answer: 0.309

Question: And the IC50 (Cytochrome P450 1A2)?
Answer: > 50 µM

Question: And the IC50 (Cytochrome P450 2C19)?
Answer: > 50 µM

Question: What about the IC50 (Cytochrome P450 2D6) of the same compound?
Answer: > 50 µM

Question: What about the Activity [22] of the same compound?
Answer: Non-toxic

Question: And the Activity [23]?
Answer: Non-toxic

Question: What about the EC50 [24] of the same compound?
Answer: 0.0388 µM

Question: What about the clearance (in vivo [25]) of the same compound?
Answer: 9.67 mL/min/kg

Question: And the Vd (in vivo [26])?
Answer: 5.58 L/kg

Question: What about the half-life (in vivo [27]) of the same compound?
Answer: 7.65 h

Question: And the bioavailability (in vivo [28])?
Answer: 41.5%

Question: And the half-life (in vivo [29])?
Answer: 8.73 h

Question: And the bioavailability (in vivo [30])?
Answer: 42%
